Measured values from patent US7452865B2, “Antagonistic analogs of GH RH (2003)” (The Administrare's of the Tulane Educational Fund, priority 2004, dated 2008).
Marks after values point to notes of the source that are not given here. Square brackets hold non-standard residues; d marks the D form. Peptide text beside a SMILES is read from it. * marks the point of attachment. Phe(4-Cl) = N[C@@H](Cc1ccc(Cl)cc1)C(=O)O; hArg = N=C(N)NCCCC[C@H](N)C(=O)O; Nle = CCCC[C@H](N)C(=O)O; Abu = CC[C@H](N)C(=O)O; PhAc = O=C(Cc1ccccc1)*

Key:
[1] = tested on: PC-3 human prostate cancer xenografts; assay: PC-3 xenografts in nude mice, Experiment 1: tumor growth; format: in vivo
Method: (§1) Male nude mice were implanted s.c. with 3 mm^3 pieces of PC-3 human hormone-independent prostate cancer tissue on both flanks. When tumors reached a volume of approx. 50 mm^3, the mice were divided into 5 experimental groups with 7 to 8 animals in each group and received single daily injections for 28 days as follows: 1. Control (vehicle solution); 2. JV-1-38 (10 μg/day s.c.); 3 Peptide 31 (10 μg/day s.c.); 4. Peptide 67 (10 μg/day s.c.); 5. Peptide 62 (10 μg/day s.c.). Tumor volumes were measured twice a week. The experiment was ended on day 29 by sacrificing the mice under Isoflurane anesthesia. Resulting tumors were cleaned, weighed, and snap-frozen until further analyses. Trunk blood was collected from the abdominal aorta and serum was separated for RIA measurement of IGF-I. Statistical analyses of the measurement results were done by two-tailed t-test; data are presented as the means±S.E.

[2] = tested on: GH-RH receptor isoforms on membrane fractions of human PC-3 prostate tumors; format: binding; settings: general statement
Procedure, shortened: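 Competitive displacement of [^125I]JV-1-42 from crude membranes of human PC-3 prostate tumours grown as nude-mouse xenografts, with unlabelled peptides at 10^−12 to 10^−6 M. Bound radioactivity in the centrifuged pellet gamma-counted; Ki from Munson–Rodbard analysis. Relative affinity = Ki of reference peptide (JV-1-36 or JV-1-38) / Ki of test antagonist.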

[3] = tested on: hGH-RH(1-29)NH2 induced GH release; assay: Inhibition of GH release in superfused rat pituitary system; format: cell-based
Procedure, shortened: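 Dispersed rat pituitary cells in superfusion were preincubated 9 min with analog at various concentrations, then stimulated with 1 nM hGH-RH(1-29)NH2 for 3 min, repeated at 30, 60, 90, 120 min to gauge duration. GH measured by double-antibody RIA; net integrated responses expressed as percent of the initial 1 nM GH-RH response.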

IGF-I [4] = assay: PC-3 xenografts, Experiment 1: serum IGF-I (RIA); format: in vivo, nude mice; settings: 10 μg/day s.c., 28 days
Excerpt: (§2) For the measurement of GH and IGF-I levels in the serum, as well as IGF-I and IGF-II concentrations in the cytosol fraction of tumors, blood samples and tumor samples were collected and processed as described (Braczkowski R, Schally A V, Plonowski A, Varga J L, Groot K, Krupa M, Armatis P, Cancer 95: 1735-1745, 2002), hereby incorporated by reference. Briefly, blood samples are centrifuged to separate the serum, tumors are homogenized and centrifuged to separate the cytosol fraction. Serum GH is then measured by the double-antibody RIA method. Before measurement by RIA, IGF-I and IGF-II are extracted from serum and cytosol fractions using an acid-ethanol cryoprecipitation method that eliminates most of the IGF binding proteins, which can interfere with the RIA. IGF-I concentration is measured by RIA using IGF-I as a standard and goat anti-IGF-I antibody (both from DSL Inc., Webster, Tex.). IGF-II concentration is measured by RIA using human recombinant IGF-II (Bachem) as a standard and anti-IGF-II monoclonal antibody (Amano International Enzyme, Troy, Va.).
as §1

IGF-I [5] = assay: PC-3 xenografts, Experiment 4: serum IGF-I (RIA); format: in vivo, nude mice; settings: 5 μg/day s.c., 28 days; for Serum IGF-I (% inhibition): vs control
Excerpt: as §2
(§3) Male nude mice were implanted s.c. with 3 mm^3 pieces of PC-3 human hormone-independent prostate cancer tissue on both flanks. When tumors reached a volume of approximately 65 mm^3, the mice were divided into 7 experimental groups with 8 to 9 animals in each group and received single daily injections for 28 days as follows: 1. Control (vehicle solution); 2. JV-1-38 (10 μg/day s.c.); 3. Peptide 35 (10 μg/day s.c.); 4. Peptide 36 (10 μg/day s.c.); 5. Peptide 37 (10 μd/day s.c.); 6. Peptide 39 (10 μg/day s.c.); 7. Peptide 41 (10 μg/day s.c.). Tumor volumes were measured twice a week. The experiment was ended on day 28 by sacrificing the mice under Isofurane anesthesia. Resulting tumors were cleaned, weighed, and snapfrozen until further analyses. Trunk blood was collected from the abdominal aorta and serum was separated for RIA measurement of IGF-I. Statistical analyses of the measurement results were done by ANOVA followed by Fisher test; data are presented as the means±S.E.
(§4) All experimental details of Experiment 4 are the same as for Experiment 3, with the following difference. When tumors reached a volume of approximately 55 mm^3, the mice were divided into 5 experimental groups with 8 to 9 animals in each group and received single daily injections for 28 days as follows: 1. Control (vehicle solution); 2. Peptide 80 (5 μg/day s.c.); 3. Peptide 86 (5 μg/day s.c.); 4. Peptide 95 (5 μg/day s.c.); 5. Peptide 96 (5 μg/day s.c.). Further details of Experiment 4 are the same as for Experiment 3.

[6] = tested on: PC-3 human prostate cancer xenografts; assay: PC-3 xenografts in nude mice, Experiment 4: tumor growth; format: in vivo; settings: for Tumor volume (mm^3) Final / Tumor volume doubling time / Tumor weight / Tumor volume Final (% inhibition) / Tumor weight (% inhibition): 5 μg/day s.c., 28 days; for Tumor volume Final (% inhibition) / Tumor weight (% inhibition): vs control; for Tumor volume (mm^3) Initial: at start of treatment
Method: as §3, §4

IGF-I [7] = assay: PC-3 xenografts, Experiment 2: serum IGF-I (RIA); format: in vivo, nude mice; settings: 5 μg/day s.c., 28 days
Excerpt: as §2, §1
(§5) Experiment 2 was similar to Experiment 1, with the difference that Experiment 2 was started when PC-3 tumors had grown to approximately 30 mm^3 in volume. At this time, the animals were divided into 8 experimental groups with 8 animals in each group, and received single daily injections for 28 days as follows. 1. Control (vehicle solution); 2. JV-1-38 (10 μg/day s.c.); 3. Peptide 46 (5 μg/day: s.c.); 4. Peptide 77 (5 μg/day s.c); 5. Peptide 76 (5 μg/day s.c.); 6. Peptide 70 (5 μg/day s.c.); 7 Peptide 79 (5 μg/day s.c.); 8. Peptide 80 (5 μg/day s.c.). Further details of Experiment 2 are the same as for Experiment 1.

[8] = tested on: PC-3 human prostate cancer xenografts; assay: PC-3 xenografts in nude mice, Experiment 2: tumor growth; format: in vivo
Method: as §1, §5

[9] = 10 μg/day s.c., 28 days, vs control
[10] = 5 μg/day s.c., 28 days, vs control

Molecule | binding affinities to the tumoral receptors for GH-RH (in words) [2] | Serum IGF-I (IGF-I [5]) | Serum IGF-I (% inhibition) (IGF-I [5]) | Tumor volume (mm^3) Final [6] | Tumor volume doubling time [6] | Tumor weight [6] | Tumor volume Final (% inhibition) [6] | Tumor weight (% inhibition) [6] | Tumor volume (mm^3) Initial [6] | further results
CCCC[C@H](NC(=O)[C@@H](NC(=O)[C@H](CC(=O)O)NC(=O)[C@H](CCC(N)=O)NC(=O)[C@H](CC(C)C)NC(=O)[C@H](CC(C)C)NC(=O)[C@H](CCCCN)NC(=O)[C@H](CCCNC(=N)N)NC(=O)[C@H](C)NC(=O)[C@H](CO)NC(=O)[C@H](CC(C)C)NC(=O)[C@H](CCC(N)=O)NC(=O)[C@H](CC)NC(=O)[C@H](CC(C)C)NC(=O)[C@@H](NC(=O)[C@H](CCCCN)NC(=O)[C@H](Cc1c[nH]cn1)NC(=O)[C@H](Cc1ccc(OC)cc1)NC(=O)[C@H](CCCCNC(=N)N)NC(=O)[C@H](CC(N)=O)NC(=O)[C@@H](NC(=O)[C@H](Cc1ccc(Cl)cc1)NC(=O)[C@@H](NC(=O)[C@H](C)NC(=O)[C@H](CC(=O)O)NC(=O)[C@@H](CCCNC(=N)N)NC(=O)[C@H](Cc1ccc(O)cc1)NC(=O)Cc1ccccc1)[C@@H](C)CC)[C@@H](C)O)C(C)C)[C@@H](C)CC)C(=O)N[C@H](CCCNC(=N)N)C(=O)N[C@@H](CCCCNC(=N)N)C(N)=O [Peptide 62, [PhAc-Tyr^1, D-Arg^2, Phe(pCl)^6, Har^9, Tyr(Me)^10, His^11, Abu^15, Nle^27, D-Arg^28, Har^29]hGH-RH(1-29)NH2] (PhAc-Y[dR]DAI[Phe(4-Cl)]TN[hArg]Y(Me)HKVL[Abu]QLSARKLLQDI[Nle][dR][hArg]-NH2) | extremely high binding affinities | – | – | – | – | – | – | – | – | Tumor volume (mm^3) Final ([1]; 10 μg/day s.c., 28 days): 215 ± 50.4 mm^3; Tumor volume doubling time ([1]; 10 μg/day s.c., 28 days): 18.4 ± 4.96 days; Tumor volume Final (% inhibition) [1, 9]: (57%); Tumor weight (% inhibition) [1, 9]: (47%); inhibitory effect on the growth of PC-3 tumors (in words) ([1]; 10 μg/day s.c., compared with JV-1-38): stronger inhibitory effect on the growth of PC-3 tumors than the reference peptide JV-1-38; Tumor volume (mm^3) Initial ([1]; at start of treatment): 56.1 ± 18.2 mm^3; GH response (% of control) 0 min ([3]; antagonist 30 nM, 1 nM hGH-RH(1-29)NH2 at 0 min): 20 % of control; GH response (% of control) 30 min ([3]; antagonist 30 nM, 1 nM hGH-RH(1-29)NH2 at 30 min): 16 % of control; GH response (% of control) 60 min ([3]; antagonist 30 nM, 1 nM hGH-RH(1-29)NH2 at 60 min): 14 % of control; GH response (% of control) 90 min ([3]; antagonist 30 nM, 1 nM hGH-RH(1-29)NH2 at 90 min): 21 % of control; GH response (% of control) 120 min ([3]; antagonist 30 nM, 1 nM hGH-RH(1-29)NH2 at 120 min): 21 % of control; endocrine antagonistic potency: inhibition of the GH release stimulated by hGH-RH(1-29)NH2 (in words) ([3]; general statement, in vitro and in vivo): high endocrine antagonistic potencies; Serum IGF-I (IGF-I [4]): 141 ± 8.86 ng/mL; Serum IGF-I (% inhibition) (IGF-I [4]; vs control): (5%)
[CH3(CH2)6CO-Tyr^1, D-Arg^2, Phe(pCl)^6, Ala^8, His^9, Tyr(Et)^10, His^11, Abu^15, His^20, Nle^27, D-Arg^28, Har^29]hGH-RH(1-29)NH2 [Peptide 86] | extremely high binding affinities | 118 ± 8.94 ng/mL | 28% | 397 ± 71.8* mm^3 | 12.1 ± 1.40 days | 643 ± 94.9 mg | 68% | 56% | 56.1 ± 8.67 mm^3 | –
[CH3(CH2)6CO-Tyr^1, D-Arg^2, Phe(pCl)^6, Ala^8, His^9, Tyr(Et)^10, His^11, Abu^15, Nle^27, D-Arg^28, Har^29]hGH-RH(1-29)NH2 [Peptide 80] | extremely high binding affinities | 136 ± 15.3 ng/mL | 18% | 398 ± 68.7* mm^3 | 10.7 ± 1.28 days | 752 ± 150 mg | 68% | 48% | 53.2 ± 10.1 mm^3 | Serum IGF-I (IGF-I [7]): 152 ± 7.83 ng/mL; Serum IGF-I (% inhibition) (IGF-I [7]; vs control): 42%; Tumor volume (mm^3) Initial ([8]; 5 μg/day groups, at start of treatment): 24.8 ± 2.2 mm^3; Tumor volume (mm^3) Final ([8]; 5 μg/day s.c., 28 days): 128 ± 38.9*# mm^3; Tumor volume doubling time ([8]; 5 μg/day s.c., 28 days): 16.7 ± 4.3 days; Tumor weight ([8]; 5 μg/day s.c., 28 days): 137 ± 46.1 mg; Tumor volume Final (% inhibition) [8, 10]: (64%); Tumor weight (% inhibition) [8, 10]: (52%)
[CH3(CH2)6CO-Tyr^1, D-Arg^2, Phe(pCl)^6, Ala^8, His^9, Tyr(Et)^10, His^11, Orn^12, Abu^15, His^20, Orn^21, Nle^27, D-Arg^28, Har^29]hGH-RH(1-29)NH2 [Peptide 96] | extremely high binding affinities | 114 ± 15.5 ng/mL | 31% | 301 ± 65.2** mm^3 | 11.0 ± 0.87 days | 489 ± 114 mg | 77% | 66% | 56.2 ± 13.3 mm^3 | antitumor effect on PC-3 tumors (in words) ([6]; 5 μg/day): strongest antitumor effect
[CH3(CH2)6CO-Tyr^1, D-Arg^2, Phe(pCl)^6, Ala^8, His^9, Tyr(Et)^10, His^11, Orn^12, Abu^15, Orn^21, Nle^27, D-Arg^28, Har^29]hGH-RH(1-29)NH2 [Peptide 95] | extremely high binding affinities | 127 ± 17.5 ng/mL | 23% | 393 ± 79.8* mm^3 | 12.5 ± 1.80 days | 666 ± 131 mg | 69% | 54% | 60.9 ± 12.2 mm^3 | –
